According to US20060058346A1, “Novel enantiomers of etrahydroisoquinoline derivatives and theirpharmaceutically acceptable salts, their preparations and pharmaceutical compositions” (priority 2002, published 2006):
Like-named read-outs stand apart in the source and are kept apart here.

What was measured:
right auricle muscle = assay: Heart rates (beats) of right auricle muscle excised from rats; design: species or system rat; settings: for Heart Rates of Auricle Muscles: vehicle control:100%
Protocol: Immediately after Sprague-Dawley rats (female or male) were anaesthetized with pentobarbital sodium (50 mg/kg, i.m.), the thorax was opened to excise the heart. The heart was submerged in Krebs solution, and left auricle muscle and right auricle muscle were then isolated. The left auricle muscle was placed in an organ bath for recording of contractile force, and applied with electrical field stimulation (voltage 10% higher than threshold voltage, 1 Hz frequency, 5 ms duration). In the case of right auricle muscle, which contracts spontaneously, the number of continuous beats was recorded. In this experiment, to measure contractile fore of the two auricle muscles, the organ bath was warmed to 37° C., and as a physiological solution, Krebs solution (119.8 mM NaCl, 4.6 mM KCl, 2.5 mM CaCl2, 1.2 mM MgCl2, 25 mM NaHCO3, 1.2 mM KH2PO4, 10 mM glucose, 1 mM EDTA, pH 7.4) was used. The Krebs solution (pH 7.4) was continuously saturated with a gas mixture of 95% O2 and 5% CO2. The auricle muscle was under a tension of 1 g, and Krebs solution was exchanged with fresh solution at intervals of 20 minutes while equilibrium was maintained during a recording period of 60 minutes.

Rat Thoracic Aortas = assay: Relaxation of rat thoracic aortas contracted by phenylephrine; settings: for IC50: Rattus norvegicus, Endothelial cell, 0.1 μM phenylephrine contraction; for relaxation of contracted blood vessels: concentration-dependant manner
Protocol: Experimental group was divided into two groups, group containing endothelial cells of blood vessel and group not containing. Blood vessel of thoracic aortas was induced to contract by treatment with 0.1 μM of phenyleprine under tension of 1 g. Upon arriving at equilibrium, the enantiomers were added to an organ bath in a cumulative manner. Relaxation of thoracic aortas was recorded using a physiograph (Grass P7), calculating their response to the compounds with consideration of their added amount.

iNOS = assay: Expression of iNOS stimulated by LPS in macrophage cell, Western blotting; assay type: cell-based; settings: LPS 1 μg/ml; 10, 50, 100 μM; FIG. 1
Protocol: Macrophage cells (RAW 264.7 cell) were plated on 100 mm culture dishes at a density of 1-2×10^5 cells and incubated in DMEM medium containing 10% fetal calf serum (heat-inactivated), 100 U/ml penicillin, and […] streptomycin in a CO2 incubator. When being grown to complete confluence, macrophage cell was inoculated in serum-free DMEM medium, and further incubated for about 24 hours. Thereafter, macrophage cells were stimulated in the presence of LPS (1 μg/ml) and each of the compounds represented by the formulas 3 to 8 for about 12 hours. Total protein was isolated from the macrophage cells. The isolated protein was quantified by using Bradford method. 10 μg of isolated protein was loaded in SDS-PAGE electroporesis gel. The said gel was transferred to PVDF membrane. Anti-iNOS antibody was added to the said gel, thereafter disposed at 4° C. overnight. Thereafter, secondary antibody was added to the said gel, reacted for 1 hour at the room temperature and sensitized using ECL. Expression of protein was quantified, compared to the expressed Actin.

LPS-injected rat = assay: Serum/plasma level of nitrate/nitrite (NOx) in LPS-injected rat; assay type: in vivo; settings: 10 mg/kg compound; LPS 20 mg/kg
Protocol: The rats were divided into three groups; (1) LPS-injected group (LPS was administered to abdominal cavity in an amount of 20 mg/kg), (2) enantiomer-injected group (LPS+the compounds represented by formula 3 to 8 was administered to abdominal cavity) or (3) saline solution-injected group. After administration of LPS, the rats were anaesthetized with pentobarbital. The blood was collected from rats by using heart punching. The plasma level of nitrite was measured by using the nitrate reductase derived from Aspergillus species, where the nitrate was reduced by enzyme. Particularly, the plasma was diluted with distilled water in a ratio of 1:10. Analysis buffering solution (KH2PO4 50 Mm, NADPH 0.6 Mm, FAD 5 Mm and nitrate reductase 10 U/ml, Ph 5.5) was added to the said plasma. Thereafter, the reaction was accomplished at 37° C. for 30 min. The plasma level of nitrite was measured by using sodium nitrite as a standard, and Griess solution. Standard curve to nitrite was calculated from the result derived from incubation in analysis buffering solution.

[1] = group containing endothelial cells, read-out: IC50 (E+), concentration showing relaxation response of 50%
[2] = group not containing endothelial cells, read-out: IC50 (E−), concentration showing relaxation response of 50%

SMILES | Heart Rates of Auricle Muscles (right auricle muscle; 1 × 10^−4 M) [%] | Heart Rates of Auricle Muscles (right auricle muscle; 1 × 10^−5 M) [%] | Heart Rates of Auricle Muscles (right auricle muscle; 1 × 10^−6 M) [%] | Heart Rates of Auricle Muscles (right auricle muscle; 1 × 10^−7 M) [%] | Heart Rates of Auricle Muscles (right auricle muscle; 3 × 10^−5 M) [%] | Heart Rates of Auricle Muscles (right auricle muscle; 3 × 10^−6 M) [%] | Heart Rates of Auricle Muscles (right auricle muscle; 3 × 10^−7 M) [%] | IC50 (Rat Thoracic Aortas; [1]) [µM] | IC50 (Rat Thoracic Aortas; [2]) [µM] | relaxation of contracted blood vessels (Rat Thoracic Aortas) | expression of iNOS protein (iNOS) | plasma level of NOx (LPS-injected rat) [µM] | effect on heart rates of auricle muscles (right auricle muscle)
Oc1ccc(C[C@@H]2NCCc3cc(O)c(O)cc32)cc1 [Formula 3, (S)-6,7-Dihydroxy-1-(p-hydroxyphenylmethyl)-1,2,3,4-tetrahydroisoquinoline] | 250 | 180 | 145 | 130 | 200 | 150 | 140 | 0.917 | 4.3 | induced relaxation | inhibited expression of iNOS protein strongly than R-enantiomer | 29 ± 3 | –
Oc1ccc(C[C@H]2NCCc3cc(O)c(O)cc32)cc1 [Formula 4, (R)-6,7-Dihydroxy-1-(p-hydroxyphenylmethyl)-1,2,3,4-tetrahydroisoquinoline] | 140 | 120 | 110 | 100 | 130 | 115 | 100 | 4.64 | 7.7 | induced relaxation | – | 85 ± 7 | increased
Oc1cc2c(cc1O)[C@H](Cc1cccc3ccccc13)NCC2 [Formula 5] | 190 | 180 | 175 | 150 | 187 | 178 | 162.5 | 0.714 | 5.5 | induced relaxation | inhibited expression of iNOS protein strongly than R-enantiomer | – | strongly stimulated
Oc1cc2c(cc1O)[C@@H](Cc1cccc3ccccc13)NCC2 [Formula 6, (R)-6,7-Dihydroxy-1-(α-naphthylmethyl)-1,2,3,4-tetrahydroisoquinoline] | 71 | 85 | 93.75 | 100 | 75 | 94 | 93.75 | 1.28 | 8.81 | induced relaxation | – | – | no effect
Oc1cc2c(cc1O)[C@H](Cc1ccc3ccccc3c1)NCC2 [Formula 7, (S)-6,7-Dihydroxy-1-(β-naphthylmethyl)-1,2,3,4-tetrahydroisoquinoline] | 180 | 175 | 165 | 150 | 180 | 170 | 160 | 0.757 | 3.14 | induced relaxation | inhibited expression of iNOS protein strongly than R-enantiomer | – | strongly stimulated
Oc1cc2c(cc1O)[C@@H](Cc1ccc3ccccc3c1)NCC2 [Formula 8, (R)-6,7-Dihydroxy-1-(β-naphthylmethyl)-1,2,3,4-tetrahydroisoquinoline] | 105 | 105 | 100 | 100 | 105 | 100 | 100 | 1.95 | 7.54 | induced relaxation | – | – | no effect
